Measurements from ChEMBL document CHEMBL3872210, “Synthesis and antiproliferative mechanism of action of pyrrolo[3',2':6,7] cyclohepta[1,2-d]pyrimidin-2-amines as singlet oxygen photosensitizers” (Eur J Med Chem, 2016).
Calls of active or inactive are those of the source. The rule behind the calls is not given here.

Tests used:
[1] = Photocytotoxicity against human HeLa cells assessed as reduction in cell survival irradiated with 1.5 J/cm2 UV-light for 5 mins measured after 48 hrs by MTT assay; format: functional, cell-based; conditions: light or radiation study
[2] = Dark toxicity against human HeLa cells assessed as reduction in cell survival measured after 30 mins by MTT assay; format: cell-based
[3] = Selectivity index, ratio of CC50 for cytotoxicity against human HeLa cells to EC50 for photocytotoxicity against human HeLa cells; format: toxicity, cell-based; conditions: read-out: Ratio CC50/EC50
[4] = Selectivity index, ratio CC50 for cytotoxicity against human HT-29 cells to EC50 for photocytotoxicity against human HT-29 cells; format: toxicity, cell-based; conditions: read-out: Ratio CC50/EC50
[5] = Photocytotoxicity against human HT-29 cells assessed as reduction in cell survival irradiated with 1.5 J/cm2 UV-light for 5 mins measured after 48 hrs by MTT assay; format: functional, cell-based; conditions: HT-29, light or radiation study
[6] = Photocytotoxicity against human MCF7 cells assessed as reduction in cell survival irradiated with 1.5 J/cm2 UV-light for 5 mins measured after 48 hrs by MTT assay; format: functional, cell-based; conditions: MCF7, light or radiation study
[7] = Selectivity index, ratio CC50 for cytotoxicity against human MCF7 cells to EC50 for photocytotoxicity against human MCF7 cells; format: toxicity, cell-based; conditions: read-out: Ratio CC50/EC50
[8] = Dark toxicity against human MCF7 cells assessed as reduction in cell survival measured after 30 mins by MTT assay; format: cell-based
[9] = Dark toxicity against human HT-29 cells assessed as reduction in cell survival measured after 30 mins by MTT assay; format: cell-based
MCF7 [10] = assay: Induction of lysosomal dysfunction in human MCF7 cells at 2 uM irradiated with 1.5 J/cm2 UV-light measured after 20 mins by Lysotracker green DND staining based confocal microscopic method; format: functional, cell-based
MCF7 [11] = assay: Dark toxicity against human MCF7 cells assessed as increase in production of radical oxygen species at 1 to 4 uM after 2 hrs by H2DCFDA dye based fluorescence assay; format: cell-based; conditions: mcf7, 2 h
[12] = Induction of mitochondrial dysfunction in human MCF7 cells at 2 uM measured after 20 mins under dark condition by Mitotracker orange CMTM-ROS/Nuclear green staining based confocal microscopic method; format: cell-based; conditions: mcf7, 20 min
[13] = Induction of apoptosis in human MCF7 cells assessed as late apoptotic cells at photocytotoxic EC50 irradiated with 1.5 J/cm2 UV-light measured after 6 hrs by 7-AAD/PE annexin V staining based FACS analysis; format: functional
MCF7 [14] = assay: Induction of mitochondrial dysfunction in human MCF7 cells assessed as clustering and swelling in location at 2 uM irradiated with 1.5 J/cm2 UV-light measured after 20 to 120 mins by Mitotracker orange CMTM-ROS/Nuclear green staining based confocal microscopic method; format: functional, cell-based
[15] = Induction of apoptosis in human MCF7 cells assessed as necrotic cells at photocytotoxic EC50 irradiated with 1.5 J/cm2 UV-light measured after 6 hrs by 7-AAD/PE annexin V staining based FACS analysis; format: functional
MCF7 [16] = assay: Induction of mitochondrial dysfunction in human MCF7 cells assessed as accumulation of mitochondrial signal at perinuclear level at 2 uM irradiated with 1.5 J/cm2 UV-light measured after 20 to 120 mins by Mitotracker orange CMTM-ROS/Nuclear green staining based confocal microscopic method; format: functional, cell-based
[17] = Induction of singlet oxygen photogeneration in aqueous acetonitrile solution of ADPA assessed as photobleaching of anthracene absorption upon irradiation at 2.3 10^-5M at 315 nanometer after 1 hr by UV absorption method; format: physicochemical; conditions: buffer
[18] = Induction of singlet oxygen sensitization in aqueous acetonitrile solution irradiated with laser flash photolysis assessed as signal intensity absorbance at 630 nanometer by spectroscopic method; format: physicochemical; conditions: buffer
[19] = Induction of singlet oxygen sensitization in aqueous acetonitrile solution irradiated with laser flash photolysis assessed as signal intensity absorbance at 355 nanometer by spectroscopic method; format: physicochemical; conditions: buffer
[20] = Induction of apoptosis in human MCF7 cells assessed as early apoptotic cells at photocytotoxic EC50 irradiated with 1.5 J/cm2 UV-light measured after 6 hrs by 7-AAD/PE annexin V staining based FACS analysis (reference value: 17 %); format: functional
[21] = Induction of lysosomal dysfunction in human MCF7 cells at 2 uM measured after 20 mins under dark condition by Lysotracker green DND staining based confocal microscopic method; format: cell-based; conditions: mcf7, 20 min
[22] = Photocytotoxicity against human MCF7 cells assessed as increase in production of radical oxygen species at 4 uM pretreated for 30 mins followed by 1.5 J/cm2 UV-light irradiation for 5 mins measured after 2 hrs by H2DCFDA dye based fluorescence assay relative to control; format: functional
MCF7 [23] = assay: Induction of lysosomal dysfunction in human MCF7 cells at 2 uM irradiated with 1.5 J/cm2 UV-light measured after 2 hrs by Lysotracker green DND staining based confocal microscopic method; format: functional, cell-based
MCF7 [24] = assay: Induction of lysosomal membrane impairment in human MCF7 cells assessed as increase in dye accumulation in cytoplasm at 2 uM irradiated with 1.5 J/cm2 UV-light measured after 20 mins by Lysotracker green DND staining based confocal microscopic method; format: functional, cell-based
[25] = Induction of singlet oxygen sensitization in aqueous acetonitrile solution irradiated with laser flash photolysis assessed as signal intensity absorbance at 610 nanometer by spectroscopic method; format: physicochemical; conditions: buffer
MCF7 [26] = assay: Dark toxicity against human MCF7 cells assessed as increase in production of radical oxygen species at 4 uM after 2 hrs by H2DCFDA dye based fluorescence assay; format: cell-based; conditions: mcf7, 2 h

SMILES	EC50 [1]	CC50 at 0.5 h [2]	selectivity ratio [3]	selectivity ratio [4]	EC50 [5]	EC50 [6]	selectivity ratio [7]	CC50 at 0.5 h [8]	CC50 at 0.5 h [9]	other results
Cn1c(C(N)=O)cc2c1-c1nc(Nc3ccccc3)ncc1CCC2	1120 nM	> 100 µM	> 90	> 54	1850 nM	4960 nM	> 20	> 100 µM	> 100 µM	
CCOC(=O)c1cc2c(n1C)-c1nc(Nc3ccccc3)ncc1CCC2	100 nM	> 100 µM	> 1040	> 348	290 nM	140 nM	> 709	> 100 µM	> 100 µM	
COc1ccc(Cn2c(C(N)=O)cc3c2-c2nc(N)ncc2CCC3)cc1	1140 nM	> 100 µM	> 88	> 50	2000 nM	3260 nM	> 31	> 100 µM	> 100 µM	
CCOC(=O)c1cc2c(n1Cc1ccccc1)-c1nc(Nc3ccccc3)ncc1CCC2	280 nM	> 100 µM	> 355	> 143	700 nM	240 nM	> 412	> 100 µM	> 100 µM	
Cn1c(C(N)=O)cc2c1-c1nc(NC3CCCCC3)ncc1CCC2	820 nM	> 100 µM	> 121	> 67	1500 nM	1850 nM	41	75.2 µM	> 100 µM	
CCOC(=O)c1cc2c(n1C)-c1nc(NC3CCCCC3)ncc1CCC2	80 nM	> 100 µM	> 1270	> 1110	90 nM	80 nM	> 1250	> 100 µM	> 100 µM	Activity (MCF7 [10]): Active; Activity (MCF7 [11]): Non-Toxic; Activity [12]: Non-Toxic; Activity [13]: 13%; Activity (MCF7 [14]): Active; Activity [15]: 11%; Activity (MCF7 [16]): Active; Activity [17]: Active; Activity [18]: 0.052; Activity [19]: 0.012; Activity [20]: 47%; Activity [21]: Non-Toxic; Activity [22]: 222%; Activity (MCF7 [23]): Active; Activity (MCF7 [24]): Active
CCOC(=O)c1cc2c(n1Cc1ccc(OC)cc1)-c1nc(NC3CCCCC3)ncc1CCC2	70 nM	> 100 µM	> 1360	> 735	140 nM	110 nM	> 952	> 100 µM	> 100 µM	
CCOC(=O)c1cc2c(n1Cc1ccccc1)-c1nc(N)ncc1CCC2	220 nM	> 100 µM	> 455	284	280 nM	790 nM	93	73.6 µM	79.2 µM	
NC(=O)c1cc2c(n1Cc1ccccc1)-c1nc(Nc3ccccc3)ncc1CCC2	250 nM	> 100 µM	> 397	> 281	360 nM	1040 nM	64	66.5 µM	> 100 µM	
CCOC(=O)c1cc2c(n1Cc1ccc(OC)cc1)-c1nc(Nc3ccccc3)ncc1CCC2	180 nM	> 100 µM	> 559	> 1470	70 nM	860 nM	> 117	> 100 µM	> 100 µM	
NC(=O)c1cc2c(n1Cc1ccccc1)-c1nc(NC3CCCCC3)ncc1CCC2	220 nM	> 100 µM	> 463	> 270	370 nM	180 nM	> 569	> 100 µM	> 100 µM	
CCOC(=O)c1cc2c(n1C)-c1nc(N)ncc1CCC2	720 nM	> 100 µM	> 139	> 58	1720 nM	1540 nM	> 65	> 100 µM	> 100 µM	
COc1ccc(Cn2c(C(N)=O)cc3c2-c2nc(NC4CCCCC4)ncc2CCC3)cc1	120 nM	> 100 µM	> 813	> 243	410 nM	180 nM	> 549	> 100 µM	> 100 µM	
Cn1c(C(N)=O)cc2c1-c1nc(N)ncc1CCC2	8750 nM	> 100 µM	> 11		> 100000 nM	66000 nM	> 1.5	> 100 µM	> 100 µM	Activity [12]: Non-Toxic; Activity [25]: 0.0146; Activity [17]: Active; Activity [19]: 0.012; Activity [20]: 22%; Activity [21]: Non-Toxic; Activity (MCF7 [26]): Non-Toxic
CCOC(=O)c1cc2c(n1Cc1ccc(OC)cc1)-c1nc(N)ncc1CCC2	320 nM	> 100 µM	> 312	> 348	290 nM	670 nM	> 150	> 100 µM	> 100 µM	
NC(=O)c1cc2c(n1Cc1ccccc1)-c1nc(N)ncc1CCC2	2090 nM	> 100 µM	> 48	> 46	2170 nM	3690 nM	> 27	> 100 µM	> 100 µM	
CCOC(=O)c1cc2c(n1Cc1ccccc1)-c1nc(NC3CCCCC3)ncc1CCC2	60 nM	> 100 µM	> 1670	> 1240	80 nM	100 nM	> 1050	> 100 µM	> 100 µM	Activity (MCF7 [11]): Non-Toxic; Activity [22]: 198%
COc1ccc(Cn2c(C(N)=O)cc3c2-c2nc(Nc4ccccc4)ncc2CCC3)cc1	160 nM	> 100 µM	> 610	> 360	280 nM	280 nM	> 358	> 100 µM	> 100 µM	
